Results from patent US12139488B2, “Pyrido[3,2-d]pyrimidine compounds uses thereof for treating a proliferative disease” (Universite de Montreal, priority 2021, dated 2024).
pIC50: −log10 of the molar value. Like-named read-outs stand apart in the source and are kept apart here.

Assays:
[1] = tested on: pERK in HCT-116 cells (KRAS G13D); assay: Phospho-ERK inhibition (AlphaLISA SureFire Ultra p-ERK 1/2), HCT116; format: cell-based, human; details: for HCT116 pERK % Ymin (lowest value of the IC50 curve): Ymin above −20% = minimal or no paradoxical activation
In short: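 Read-out: AlphaLISA p-ERK1/2 (Thr202/Tyr204) in lysates after 1 h exposure to compound in complete RPMI-1640, 5% FBS, 0.5% DMSO. Trametinib defined 100% inhibition and vehicle 0%; IC50 values come from four-parameter curves. Negative inhibition was taken as paradoxical pERK induction.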

[2] = molecular target: CRAF (Homo sapiens, UniProt P04049); assay: CRAF kinase activity assay (ADP-Glo); format: biochemical; details: for pIC50: § symbols, read-out: Kinase IC50
Protocol: (§1) Compound preparation: solid samples of each substances in 1 dram vials were suspended in DMSO (Fisher Scientific) at a stock concentration of 20 mM. Stocks were kept at −20° C. and protected from light.
(§2) In vitro enzymatic reactions were used for evaluating compounds intrinsic activity against BRAF, CRAF and ARAF. […] Separate reactions were performed with the MEK1 substrate and ATP as a blank control.
(§3) For compound treatment, 5 μL/well of test substance solution are placed in a 384-well proxyplate (Perkin Elmer) and mixed with 2× concentrated kinase reactions. The dilution series is selected so that nine concentrations cover a range from 100 nM to 0.01 nM. […] The final concentration of DMSO in the assay is set at 0.05%.
(§4) BRAF and CRAF kinase reactions were carried out for a total of 2 hours at 30° C. and then stopped by ½ dilution in ADP-Glo Reagent (cat #V9102; Promega; part V912C). Reactions were then incubated for 1h at room temperature before addition of one volume of Kinase Detection Reagent (cat #V9102; Promega; part V917A). Plates were then equilibrated at room temperature for 30 minutes before detection of luminescence on a Synergy Neo2 plate reader (Biotek). The effect of each compound dilution on BRAF and CRAF kinase activity was expressed as % inhibition and calculated as follows.
(§5) IC50 values were obtained by plotting the kinase inhibition values and fitting the dose-activity curves using a log(agonist) versus response-variable slope (four parameters) function using either GraphPadPrism (V7.0) or Dotmatics Screening Ultra platform.

[3] = molecular target: BRAF (Homo sapiens (Human), UniProt P15056); assay: BRAF kinase activity assay (ADP-Glo); format: biochemical; details: for pIC50: first kinase column (c6), * symbols, read-out: Kinase IC50
Protocol: as §1, §2, §3, §4, §5

[4] = HCT116 cells, class symbol before the bracket
[5] = read-out: Kinase IC50 (nM) CRAF
[6] = read-out: Kinase IC50 (nM) BRAF
[7] = lowest % inhibition value of the IC50 curve, HCT116
[8] = Homo sapiens, HCT-116, HCT116 cells, class symbol
[9] = CRAF, read-out: Kinase IC50 (nM), CRAF biochemical kinase assay
[10] = BRAF, read-out: Kinase IC50 (nM), BRAF biochemical kinase assay

CRAF, sequence (P04049 whole entry, looked up): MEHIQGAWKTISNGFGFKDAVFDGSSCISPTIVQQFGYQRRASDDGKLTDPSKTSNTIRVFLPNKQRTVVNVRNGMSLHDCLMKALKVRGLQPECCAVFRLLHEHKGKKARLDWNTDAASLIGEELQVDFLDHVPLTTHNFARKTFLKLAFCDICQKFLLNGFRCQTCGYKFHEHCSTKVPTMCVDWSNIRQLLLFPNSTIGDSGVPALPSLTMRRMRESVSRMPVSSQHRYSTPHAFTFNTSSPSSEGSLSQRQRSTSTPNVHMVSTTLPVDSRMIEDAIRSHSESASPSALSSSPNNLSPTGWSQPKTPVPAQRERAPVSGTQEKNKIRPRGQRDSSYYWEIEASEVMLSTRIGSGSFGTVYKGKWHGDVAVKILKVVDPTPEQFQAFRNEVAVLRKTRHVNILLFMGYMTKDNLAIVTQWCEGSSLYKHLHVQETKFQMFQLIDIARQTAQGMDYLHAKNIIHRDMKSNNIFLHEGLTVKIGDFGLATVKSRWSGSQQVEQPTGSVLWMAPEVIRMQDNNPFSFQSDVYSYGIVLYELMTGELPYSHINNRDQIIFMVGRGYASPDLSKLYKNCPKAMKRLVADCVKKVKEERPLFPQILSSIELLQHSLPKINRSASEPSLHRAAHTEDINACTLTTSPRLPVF
BRAF, sequence (P15056 whole entry): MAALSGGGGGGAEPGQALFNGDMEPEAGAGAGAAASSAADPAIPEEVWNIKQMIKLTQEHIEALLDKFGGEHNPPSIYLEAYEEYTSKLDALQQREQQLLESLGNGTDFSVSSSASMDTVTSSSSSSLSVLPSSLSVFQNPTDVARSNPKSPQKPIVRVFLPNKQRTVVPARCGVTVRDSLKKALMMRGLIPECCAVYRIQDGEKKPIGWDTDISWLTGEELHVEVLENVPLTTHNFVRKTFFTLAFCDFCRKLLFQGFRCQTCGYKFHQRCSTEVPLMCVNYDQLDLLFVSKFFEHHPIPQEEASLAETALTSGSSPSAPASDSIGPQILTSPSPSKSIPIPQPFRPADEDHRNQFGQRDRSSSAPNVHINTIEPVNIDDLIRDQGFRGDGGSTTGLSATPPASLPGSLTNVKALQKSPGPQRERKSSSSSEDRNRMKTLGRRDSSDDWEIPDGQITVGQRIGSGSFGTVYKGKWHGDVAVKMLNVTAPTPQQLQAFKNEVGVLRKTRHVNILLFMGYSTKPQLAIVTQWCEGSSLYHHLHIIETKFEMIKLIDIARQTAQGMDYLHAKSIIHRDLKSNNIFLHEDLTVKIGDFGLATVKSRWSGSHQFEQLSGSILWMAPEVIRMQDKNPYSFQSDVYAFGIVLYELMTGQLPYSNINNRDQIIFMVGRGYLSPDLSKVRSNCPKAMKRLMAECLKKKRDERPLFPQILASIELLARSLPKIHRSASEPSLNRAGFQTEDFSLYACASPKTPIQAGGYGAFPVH

| pIC50 [1, 4] | IC50 [2, 5] [nM] | IC50 [3, 6] [nM] | Compound | HCT116 pERK Ymin % ([1]; HCT116 cells, Ymin in brackets) [%] | also measured |
| --- | --- | --- | --- | --- | --- |
| > 6.30 | 10 to 50 | < 1 | CN(C)C(=O)c1cn(-c2ccc3ncnc(Nc4c(F)ccc(NS(=O)(=O)c5ccccc5Cl)c4F)c3n2)c2ccccc12 [Ex 87] | −4.4 | – |
| 5.00 to 6.00 | < 10 | 1 to 10 | NC(=O)Cc1cn(-c2ccc3ncnc(Nc4c(F)ccc(NS(=O)(=O)c5ccccc5Cl)c4F)c3n2)c2ccccc12 [Ex 90] | −1 | – |
| 5.00 to 6.00 | > 50 | 1 to 10 | CC(=O)c1cn(-c2ccc3ncnc(Nc4c(F)ccc(NS(=O)(=O)c5ccccc5Cl)c4F)c3n2)c2ccccc12 [Ex 214] | −12 | – |
| 5.00 to 6.00 | 10 to 50 | 1 to 10 | CNCc1cccc2c1ncn2-c1ccc2ncnc(Nc3c(F)ccc(NS(=O)(=O)c4ccccc4Cl)c3F)c2n1 [Ex 215] | −9 | – |
| 6.00 to 6.30 | 10 to 50 | 1 to 10 | CN(C)Cc1cccc2c1ncn2-c1ccc2ncnc(Nc3c(F)ccc(NS(=O)(=O)c4ccccc4Cl)c3F)c2n1 [Ex 216] | −8.8 | – |
| 5.00 to 6.00 | < 10 | < 1 | NCc1cccc2c1ncn2-c1ccc2ncnc(Nc3c(F)ccc(NS(=O)(=O)c4ccccc4Cl)c3F)c2n1 [Ex 217] | −9 | – |
| 5.00 to 6.00 | 10 to 50 | 1 to 10 | O=S(=O)(Nc1ccc(F)c(Nc2ncnc3ccc(-n4cnc5c(CN6CCCC6)cccc54)nc23)c1F)c1ccccc1Cl [Ex 219] | 0 | – |
| 5.00 to 6.00 | 10 to 50 | 1 to 10 | CC(C)NCc1cccc2c1ncn2-c1ccc2ncnc(Nc3c(F)ccc(NS(=O)(=O)c4ccccc4Cl)c3F)c2n1 [Ex 222] | −11 | – |
| 5.00 to 6.00 | 10 to 50 | 1 to 10 | O=S(=O)(Nc1ccc(F)c(Nc2ncnc3ccc(-n4cnc5c(CN6CC(O)C6)cccc54)nc23)c1F)c1ccccc1Cl [Ex 225] | −8 | – |
| 5.00 to 6.00 | > 50 | 1 to 10 | COC1CN(Cc2cccc3c2ncn3-c2ccc3ncnc(Nc4c(F)ccc(NS(=O)(=O)c5ccccc5Cl)c4F)c3n2)C1 [Ex 226] | −9 | – |
| 5.00 to 6.00 | 10 to 50 | < 1 | O=S(=O)(Nc1ccc(F)c(Nc2ncnc3ccc(-n4cnc5c(CN6CCC(O)CC6)cccc54)nc23)c1F)c1ccccc1Cl [Ex 229] | −7 | – |
| 6.00 to 6.30 | 10 to 50 | 1 to 10 | CC(=O)Nc1cccc2c1ncn2-c1ccc2ncnc(Nc3c(F)ccc(NS(=O)(=O)c4ccccc4Cl)c3F)c2n1 [Example 85] | 2.9 | – |
| 6.00 to 6.30 | < 10 | < 1 | Cc1c(Cl)cccc1S(=O)(=O)Nc1ccc(F)c(Nc2ncnc3ccc(-n4cnc5c(O)cccc54)nc23)c1F [Example 116] | −18 | – |
| 6.00 to 6.30 | < 10 | 1 to 10 | Cc1c(Cl)cccc1S(=O)(=O)Nc1ccc(F)c(Nc2ncnc3ccc(-n4nnc5c(O)cccc54)nc23)c1F [Example 117] | −12 | – |
| 5.00 to 6.00 | 10 to 50 | 1 to 10 | O=S(=O)(Nc1ccc(F)c(Nc2ncnc3ccc(-n4cc(-c5ncc[nH]5)c5ccccc54)nc23)c1F)c1cccc(Cl)c1Cl [Example 207] | −11 | – |
| 5.00 to 6.00 | > 50 | 1 to 10 | O=S(=O)(Nc1ccc(F)c(Nc2ncnc3ccc(-n4nc(-c5ncc[nH]5)c5ccccc54)nc23)c1F)c1cccc(Cl)c1Cl [Example 212] | −13 | – |
| 5.00 to 6.00 | > 50 | 1 to 10 | O=S(=O)(Nc1ccc(F)c(Nc2ncnc3ccc(-n4nc(-c5ncc[nH]5)c5ccccc54)nc23)c1F)c1ccccc1Cl [Example 213] | −8 | – |
| 5.00 to 6.00 | > 50 | 1 to 10 | NCC(=O)c1cn(-c2ccc3ncnc(Nc4c(F)ccc(NS(=O)(=O)c5ccccc5Cl)c4F)c3n2)c2ccccc12 [Example 223] | −9 | – |
| – | – | – | COc1ccc(S(=O)(=O)Nc2ccc(F)c(Nc3ncnc4ccc(-n5cnc6ccccc65)nc34)c2Cl)cc1 [Example 239] | – | pIC50 ([1]; HCT116 cells, Table 5): 5.00 to 6.00; HCT116 pERK Ymin % ([1]; lowest value of the curve, HCT116, Table 5): 6.7%; IC50 ([2]; Table 5, read-out: Kinase IC50 (nM) CRAF): > 50 nM; IC50 ([3]; Table 5, read-out: Kinase IC50 (nM) BRAF): > 10 nM |
| > 6.30 | < 10 | 1 to 10 | O=S(=O)(Nc1ccc(F)c(Nc2ncnc3ccc(-n4cnc5c(-c6cccnc6)cccc54)nc23)c1F)c1ccccc1Cl [Example 243] | −3.9 | – |
| – | < 10 | 1 to 10 | Cc1c(Cl)csc1S(=O)(=O)Nc1ccc(F)c(Nc2ncnc3ccc(-n4cnc5ccccc54)nc23)c1F [Example 315] | – | pIC50 ([1]; HCT116 cells, 1 h treatment): > 6.30; HCT116 pERK Ymin % [1, 7]: −12% |
| – | < 10 | < 1 | Cc1csc(S(=O)(=O)Nc2ccc(F)c(Nc3ncnc4ccc(-n5cnc6ccccc65)nc34)c2F)c1Cl [Example 316, N-(3-((6-(1H-benzo[d]imidazol-1-yl)pyrido[3,2-d]pyrimidin-4-yl)amino)-2,4-difluorophenyl)-3-chloro-4-methylthiophene-2-sulfonamide] | – | pIC50 ([1]; Homo sapiens, HCT-116, HCT116 cells, 1 h treatment): 6.00 to 6.30; HCT116 pERK Ymin % [1, 7]: −5% |
| – | – | – | Cc1c(F)cccc1S(=O)(=O)Nc1ccc(F)c(Nc2ncnc3ccc(-n4cnc(/C=C/C#N)c4)nc23)c1F [Example 343, (E)-N-(3-((6-(4-(2-cyanovinyl)-1H-imidazol-1-yl)pyrido[3,2-d]pyrimidin-4-yl)amino)-2,4-difluorophenyl)-3-fluoro-2-methylbenzenesulfonamide] | – | pIC50 [1, 8]: > 6.30; pIC50 [2]: 7.30 to 8.00; pIC50 [3]: 8.00 to 9.00 |
| – | – | – | Cc1c(F)cccc1S(=O)(=O)Nc1ccc(F)c(Nc2ncnc3ccc(-n4cnc5c(CO)cccc54)nc23)c1F [Example 345, N-[2,4-difluoro-3-[[6-[4-(hydroxymethyl)benzimidazol-1-yl]pyrido[3,2-d]pyrimidin-4-yl]amino]phenyl]-3-fluoro-2-methyl-benzenesulfonamide] | – | pIC50 [1, 8]: > 6.30; pIC50 [2]: > 8.00; pIC50 [3]: 8.00 to 9.00 |
| – | – | – | CC(=O)N1CCCc2nn(-c3ccc4ncnc(Nc5c(F)ccc(NS(=O)(=O)c6cccc(Cl)c6Cl)c5F)c4n3)cc21 [Example 486] | – | pIC50 [1, 8]: 6.00 to 6.30; pIC50 [2]: > 8.00; pIC50 [3]: 8.00 to 9.00 |
| – | – | – | O=S(=O)(Nc1ccc(F)c(Nc2ncnc3ccc(-c4cnc5n4CCCC5)nc23)c1F)c1cccc(Cl)c1Cl [Example 561] | – | pIC50 ([1]; HCT116 cells): > 6.30; HCT116 pERK % Ymin (lowest value of the IC50 curve) ([1]; HCT116 cells): −13%; IC50 [2, 9]: < 10 nM; IC50 [3, 10]: 1 to 10 nM |
| – | – | – | O=S(=O)(Nc1ccc(F)c(Nc2ncnc3ccc(-n4cnc5nccnc54)nc23)c1F)c1cccc(Cl)c1Cl [Example 573] | – | pIC50 ([1]; HCT116 cells): 5.00 to 6.00; HCT116 pERK % Ymin (lowest value of the IC50 curve) ([1]; HCT116 cells): −1%; IC50 [2, 9]: > 50 nM; IC50 [3, 10]: > 10 nM |

| Compound | pIC50 [1, 4] | IC50 [2, 5] [nM] | IC50 [3, 6] [nM] | HCT116 pERK Ymin % ([1]; HCT116 cells, Ymin in brackets) [%] | also measured |
| --- | --- | --- | --- | --- | --- |
| Nc1nc(-c2ccc3ncnc(Nc4c(F)ccc(NS(=O)(=O)c5ccccc5Cl)c4F)c3n2)cs1 [Example 94] | 5.00 to 6.00 | > 50 | > 10 | −5 | – |
| O=C(Nc1cccc2c1ncn2-c1ccc2ncnc(Nc3c(F)ccc(NS(=O)(=O)c4ccccc4Cl)c3F)c2n1)N1CCOCC1 [Example 149] | 6.00 to 6.30 | 10 to 50 | 1 to 10 | 8.5 | – |
| O=S(=O)(Nc1ccc(F)c(Nc2ncnc3ccc(-n4nc(-c5nnc(O)o5)c5ccccc54)nc23)c1F)c1cccc(Cl)c1Cl [Example 208] | 5.00 to 6.00 | < 10 | 1 to 10 | −4 | – |
| CN(C)c1nnc(-c2nn(-c3ccc4ncnc(Nc5c(F)ccc(NS(=O)(=O)c6cccc(Cl)c6Cl)c5F)c4n3)c3ccccc23)o1 [Example 209] | 4.52 to 5.00 | 10 to 50 | 1 to 10 | −6 | – |
| Cc1scc(S(=O)(=O)Nc2ccc(F)c(Nc3ncnc4ccc(-n5cnc6ccccc65)nc34)c2F)c1C [Example 320] | – | > 50 | 1 to 10 | – | pIC50 ([1]; HCT116 cells, 1 h treatment): 5.00 to 6.00; HCT116 pERK Ymin % [1, 7]: −5% |
